Results as given in ChEMBL document CHEMBL3804786, “Novel 1,3-thiazolidin-4-one derivatives as promising anti-Candida agents endowed with anti-oxidant and chelating properties” (Eur J Med Chem, 2016).
In brackets after ≈: the same amount, converted by molar mass.

Tests used:
Staphylococcus aureus = assay: Antibacterial activity against Staphylococcus aureus clinical isolate after 18 to 22 hrs by broth microdilution method; assay type: functional
Staphylococcus warneri = assay: Antibacterial activity against Staphylococcus warneri clinical isolate after 18 to 22 hrs by broth microdilution method; assay type: functional
Enterococcus faecalis = assay: Antibacterial activity against Streptococcus faecalis clinical isolate after 18 to 22 hrs by broth microdilution method; assay type: functional
Escherichia coli = assay: Antibacterial activity against Escherichia coli after clinical isolate 18 to 22 hrs by broth microdilution method; assay type: functional
Proteus mirabilis = assay: Antibacterial activity against Proteus mirabilis clinical isolate after 18 to 22 hrs by broth microdilution method; assay type: functional
Enterobacter sp. = assay: Antibacterial activity against Enterobacter spp. clinical isolate after 18 to 22 hrs by broth microdilution method; assay type: functional
Klebsiella oxytoca = assay: Antibacterial activity against Klebsiella oxytoca clinical isolate after 18 to 22 hrs by broth microdilution method; assay type: functional
Candida albicans = assay: Antifungal activity against Candida albicans clinical isolate after 24 hrs by broth microdilution method; assay type: functional
Nakaseomyces glabratus = assay: Antifungal activity against Candida glabrata clinical isolate after 24 hrs by broth microdilution method; assay type: functional
Candida tropicalis = assay: Antifungal activity against Candida tropicalis clinical isolate after 24 hrs by broth microdilution method; assay type: functional
Pichia kudriavzevii = assay: Antifungal activity against Candida krusei clinical isolate after 24 hrs by broth microdilution method; assay type: functional
Candida parapsilosis = assay: Antifungal activity against Candida parapsilosis clinical isolate after 24 hrs by broth microdilution method; assay type: functional; conditions: Lodderomyces parapsilosis
[Candida] sake = Antifungal activity against Candida sake clinical isolate after 24 hrs by broth microdilution method; assay type: functional; conditions: Fermentozyma sake
[1] = system: Streptococcus sp. (viridans group); assay: Antibacterial activity against Streptococcus alpha-hemolyticus clinical isolate after 18 to 22 hrs by broth microdilution method
[2] = Cytotoxicity against human Hep2 cells assessed as cell survival at 0.05 ug/ml after 24 hrs by trypan blue exclusion assay; assay type: cell-based, HEp-2; conditions: read-out: Survival
[3] = Cytotoxicity against human Hep2 cells assessed as cell survival at 0.5 ug/ml after 24 hrs by trypan blue exclusion assay; assay type: cell-based, HEp-2; conditions: read-out: Survival
[4] = Cytotoxicity against human Hep2 cells assessed as cell survival at 5 ug/ml after 24 hrs by trypan blue exclusion assay; assay type: cell-based, HEp-2; conditions: read-out: Survival
[5] = Cytotoxicity against human Hep2 cells assessed as cell survival at 10 ug/ml after 24 hrs by trypan blue exclusion assay; assay type: cell-based, HEp-2; conditions: read-out: Survival
[6] = Cytotoxicity against human Hep2 cells assessed as cell survival at 50 ug/ml after 24 hrs by trypan blue exclusion assay; assay type: cell-based, HEp-2; conditions: read-out: Survival
[7] = Cytotoxicity against human Hep2 cells assessed as reduction in cell viability after 24 hrs by trypan blue exclusion assay; assay type: cell-based, HEp-2
[8] = Antioxidant activity of the compound after 90 mins by phosphomolybdenum assay; assay type: physicochemical
[9] = Antioxidant activity of the compound after 30 mins by FRAP assay; assay type: physicochemical
[10] = Antioxidant activity of the compound after 30 mins by CUPRAC method; assay type: physicochemical
[11] = Antioxidant activity assessed as DPPH radical scavenging activity after 30 mins under dark conditions; assay type: physicochemical
[12] = Antioxidant activity assessed as ABTS radical scavenging activity after 30 mins under dark conditions; assay type: physicochemical
[13] = Metal chelating activity of the compound assessed as ferrous ion complex formation after 10 mins; assay type: physicochemical

Row | SMILES | MIC (Staphylococcus aureus) | MIC (Staphylococcus warneri) | MIC (Enterococcus faecalis) | MIC (Escherichia coli) | MIC (Proteus mirabilis) | MIC (Enterobacter sp.) | MIC (Klebsiella oxytoca) | MIC (Candida albicans) | MIC (Nakaseomyces glabratus) | MIC (Candida tropicalis) | MIC (Pichia kudriavzevii) | MIC (Candida parapsilosis) | MIC ([Candida] sake) | MIC [1] | EC50 [8] | EC50 [9] | EC50 [10] | IC50 [11] | IC50 [12] | IC50 [13] | other results
1 | C/C(=N/N=C1\SCC(=O)N1Cc1ccc(Cl)cc1)c1cccs1 | > 256 µg/mL | > 256 µg/mL | > 256 µg/mL | > 256 µg/mL | > 256 µg/mL | > 256 µg/mL | > 256 µg/mL | 4 µg/mL (≈ 11 µM) | 2 µg/mL (≈ 5.5 µM) | 8 µg/mL (≈ 22 µM) | 8 µg/mL (≈ 22 µM) | 4 µg/mL (≈ 11 µM) | 8 µg/mL (≈ 22 µM) | > 256 µg/mL |  |  |  |  |  |  | 
2 | C/C(=N\N=C1/SCC(=O)N1Cc1cccc(Cl)c1)c1ccccn1 | > 256 µg/mL | > 256 µg/mL | > 256 µg/mL | > 256 µg/mL | > 256 µg/mL | > 256 µg/mL | > 256 µg/mL | 2 µg/mL (≈ 5.57 µM) | 2 µg/mL (≈ 5.57 µM) | 2 µg/mL (≈ 5.57 µM) | 4 µg/mL (≈ 11.1 µM) | 2 µg/mL (≈ 5.57 µM) | 16 µg/mL (≈ 44.6 µM) | > 256 µg/mL | 2040 µM | 4930 µM | 1400 µM | > 5000 µM | 26800 µM | 2760 µM | viability at 24 h, 0.05 ug/ml [2]: 94%; viability at 24 h, 0.5 ug/ml [3]: 87.5%; viability at 24 h, 5 ug/ml [4]: 85%; viability at 24 h, 10 ug/ml [5]: 69%; viability at 24 h, 50 ug/ml [6]: 0%; CC50 at 24 h [7]: 21 µg/mL (≈ 58.5 µM)
3 | C/C(=N/N=C1\SCC(=O)N1Cc1ccc(Cl)cc1)c1ccccn1 | > 256 µg/mL | > 256 µg/mL | > 256 µg/mL | > 256 µg/mL | > 256 µg/mL | > 256 µg/mL | > 256 µg/mL | 8 µg/mL (≈ 22.3 µM) | 4 µg/mL (≈ 11.1 µM) | 8 µg/mL (≈ 22.3 µM) | 8 µg/mL (≈ 22.3 µM) | 4 µg/mL (≈ 11.1 µM) | 8 µg/mL (≈ 22.3 µM) | > 256 µg/mL |  |  |  |  |  |  | 
4 | C/C(=N\N=C1/SCC(=O)N1Cc1ccccc1F)c1cccs1 | > 256 µg/mL | > 256 µg/mL | > 256 µg/mL | > 256 µg/mL | > 256 µg/mL | > 256 µg/mL | > 256 µg/mL | 2 µg/mL (≈ 5.76 µM) | 4 µg/mL (≈ 11.5 µM) | 2 µg/mL (≈ 5.76 µM) | 4 µg/mL (≈ 11.5 µM) | 4 µg/mL (≈ 11.5 µM) | 2 µg/mL (≈ 5.76 µM) | > 256 µg/mL | 1260 µM | 2130 µM | 2400 µM | > 5000 µM | 15700 µM | 3840 µM | viability at 24 h, 0.05 ug/ml [2]: 91%; viability at 24 h, 0.5 ug/ml [3]: 80%; viability at 24 h, 5 ug/ml [4]: 62%; viability at 24 h, 10 ug/ml [5]: 41%; viability at 24 h, 50 ug/ml [6]: 0%; CC50 at 24 h [7]: 15 µg/mL (≈ 43.2 µM)
5 | C/C(=N/N=C1\SCC(=O)N1Cc1ccc(F)cc1)c1cccs1 | > 256 µg/mL | > 256 µg/mL | > 256 µg/mL | > 256 µg/mL | > 256 µg/mL | > 256 µg/mL | > 256 µg/mL | 2 µg/mL (≈ 5.76 µM) | 2 µg/mL (≈ 5.76 µM) | 2 µg/mL (≈ 5.76 µM) | 2 µg/mL (≈ 5.76 µM) | 4 µg/mL (≈ 11.5 µM) | 8 µg/mL (≈ 23 µM) | > 256 µg/mL | 1370 µM | 2020 µM | 1850 µM | > 5000 µM | 21500 µM | 3900 µM | viability at 24 h, 0.05 ug/ml [2]: 83%; viability at 24 h, 0.5 ug/ml [3]: 76%; viability at 24 h, 5 ug/ml [4]: 68%; viability at 24 h, 10 ug/ml [5]: 52%; viability at 24 h, 50 ug/ml [6]: 0%; CC50 at 24 h [7]: 15 µg/mL (≈ 43.2 µM)
6 | C/C(=N\N=C1/SCC(=O)N1Cc1cccc(Cl)c1)c1cccs1 | > 256 µg/mL | > 256 µg/mL | > 256 µg/mL | > 256 µg/mL | > 256 µg/mL | > 256 µg/mL | > 256 µg/mL | 2 µg/mL (≈ 5.5 µM) | 2 µg/mL (≈ 5.5 µM) | 2 µg/mL (≈ 5.5 µM) | 2 µg/mL (≈ 5.5 µM) | 2 µg/mL (≈ 5.5 µM) | 2 µg/mL (≈ 5.5 µM) | > 256 µg/mL | 1160 µM | 2320 µM | 1590 µM | > 5000 µM | 20300 µM | 1640 µM | viability at 24 h, 0.05 ug/ml [2]: 94%; viability at 24 h, 0.5 ug/ml [3]: 89%; viability at 24 h, 5 ug/ml [4]: 82%; viability at 24 h, 10 ug/ml [5]: 63%; viability at 24 h, 50 ug/ml [6]: 0%; CC50 at 24 h [7]: 21 µg/mL (≈ 57.7 µM)
7 | Nc1ccc(CN2C(=O)CS/C2=N\N=C2CCCC2)cc1 | > 256 µg/mL | > 256 µg/mL | > 256 µg/mL | > 256 µg/mL | > 256 µg/mL | > 256 µg/mL | > 256 µg/mL | 2 µg/mL (≈ 6.61 µM) | 16 µg/mL (≈ 52.9 µM) | 32 µg/mL (≈ 106 µM) | 16 µg/mL (≈ 52.9 µM) | 64 µg/mL (≈ 212 µM) | 256 µg/mL (≈ 847 µM) | > 256 µg/mL |  |  |  |  |  |  | 
8 | CC(C)=N/N=C1\SCC(=O)N1Cc1ccc(N)cc1 | > 256 µg/mL | > 256 µg/mL | > 256 µg/mL | > 256 µg/mL | > 256 µg/mL | > 256 µg/mL | > 256 µg/mL | 4 µg/mL (≈ 14.5 µM) | 1 µg/mL (≈ 3.62 µM) | 32 µg/mL (≈ 116 µM) | 2 µg/mL (≈ 7.24 µM) | 2 µg/mL (≈ 7.24 µM) | 4 µg/mL (≈ 14.5 µM) | > 256 µg/mL | 1200 µM | 2760 µM | 1770 µM | > 5000 µM | 2040 µM | > 5000 µM | 
